For 1 compound, IC50 results are on record in BindingDB's records for patent US9090621 (Principia Biopharma, 2015).

This experiment has as its target Tyrosine-protein kinase BTK (Homo sapiens, UniProt Q06187). Nature of the experiment: Enzymatic Activity Assay. Conditions: 25 °C.

The IC50 is the concentration that gives 50% inhibition. Low readings indicate inhibition by little substance, high ones a need for much substance.

Chain of Tyrosine-protein kinase BTK (Q06187 whole entry): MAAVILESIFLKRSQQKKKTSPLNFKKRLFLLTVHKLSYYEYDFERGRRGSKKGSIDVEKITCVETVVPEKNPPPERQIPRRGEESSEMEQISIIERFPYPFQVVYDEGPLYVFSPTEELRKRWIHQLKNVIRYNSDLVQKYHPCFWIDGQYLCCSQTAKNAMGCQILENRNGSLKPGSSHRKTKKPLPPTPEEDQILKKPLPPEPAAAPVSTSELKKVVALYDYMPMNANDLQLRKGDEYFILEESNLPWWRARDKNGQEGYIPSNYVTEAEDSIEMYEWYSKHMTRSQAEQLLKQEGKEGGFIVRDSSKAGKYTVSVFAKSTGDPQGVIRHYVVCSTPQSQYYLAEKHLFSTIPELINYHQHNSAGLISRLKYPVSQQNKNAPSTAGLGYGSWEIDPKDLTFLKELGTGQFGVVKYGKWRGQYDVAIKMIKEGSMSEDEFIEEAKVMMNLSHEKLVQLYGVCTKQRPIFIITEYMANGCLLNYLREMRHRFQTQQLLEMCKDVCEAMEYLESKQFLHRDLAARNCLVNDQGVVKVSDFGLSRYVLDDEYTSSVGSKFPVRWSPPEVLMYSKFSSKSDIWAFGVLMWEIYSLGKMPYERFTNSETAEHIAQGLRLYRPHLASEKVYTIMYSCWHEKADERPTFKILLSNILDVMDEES
Protocol: A Caliper-based kinase assay (Caliper Life Sciences, Hopkinton, Mass.) was used to measure inhibition of Btk kinase activity of a compound of Formula (IA), (I′) or (I). […] The reaction was then terminated with EDTA, final concentration 20 mM and the phosphorylated reaction product was quantified on a Caliper Desktop Profiler (Caliper LabChip 3000).

For `COc1cc(-c2nn(C3CCCN(C(=O)C(C#N)=CC4CC4)C3)c3ncnc(N)c23)ccc1Oc1ccc(Cl)c(Cl)c1` (stereo unspecified) [US9090621, 5], inhibition was half-maximal at 1 nM (IC50).
